# Earlier results as cited in patent US11534622B2, “Non-invasive systems and methods for selective activation of photoreactive responses” (IMMUNOLIGHT, LLC, priority 2014, dated 2022).
# Assays:
# [1] = clinical use
# tumors = conditions: in vivo
# [2] = orange juice, high UV exposure of 100 mJ/cm^2
structure (smiles),measurement,setting,value
"Oc1cccc(-c2c3nc(c(-c4cccc(O)c4)c4ccc([nH]4)c(-c4cccc(O)c4)c4nc(c(-c5cccc(O)c5)c5ccc2[nH]5)CC4)C=C3)c1 [Foscan, Tetra (m-hydroxyphenyl) chlorin]",duration of skin photosensitivity,[1],approximately 2 weeks
"CC(=O)[O-].CC(=O)[O-].CCc1c(CC)c2cc3nc(cnc4cc(OCCOCCOCCOC)c(OCCOCCOCCOC)cc4ncc4nc(cc1[n-]2)C(CCCO)=C4C)C(C)=C3CCCO.O.[Lu+3] [Lutetium texaphryin, Motexafin lutetium]",selectivity for tumors compared to normal tissues,tumors,one of the greatest reported selectivities for tumors
O=C1O[C@H]([C@@H](O)CO)C(O)=C1O [Vitamin C],degradation of Vitamin C,[2],17%
